Values of other authors, collected in patent US6972176B2, “KVLQT1—a long QT syndrome gene” (University of Utah Research Foundation, priority 1995, dated 2005).

Target: T1, IKs in isolated myocytes (Cavia porcellus, UniProt O70344)
T1 construct: host or cells: isolated cardiac myocytes
T1 sequence (O70344 1-671): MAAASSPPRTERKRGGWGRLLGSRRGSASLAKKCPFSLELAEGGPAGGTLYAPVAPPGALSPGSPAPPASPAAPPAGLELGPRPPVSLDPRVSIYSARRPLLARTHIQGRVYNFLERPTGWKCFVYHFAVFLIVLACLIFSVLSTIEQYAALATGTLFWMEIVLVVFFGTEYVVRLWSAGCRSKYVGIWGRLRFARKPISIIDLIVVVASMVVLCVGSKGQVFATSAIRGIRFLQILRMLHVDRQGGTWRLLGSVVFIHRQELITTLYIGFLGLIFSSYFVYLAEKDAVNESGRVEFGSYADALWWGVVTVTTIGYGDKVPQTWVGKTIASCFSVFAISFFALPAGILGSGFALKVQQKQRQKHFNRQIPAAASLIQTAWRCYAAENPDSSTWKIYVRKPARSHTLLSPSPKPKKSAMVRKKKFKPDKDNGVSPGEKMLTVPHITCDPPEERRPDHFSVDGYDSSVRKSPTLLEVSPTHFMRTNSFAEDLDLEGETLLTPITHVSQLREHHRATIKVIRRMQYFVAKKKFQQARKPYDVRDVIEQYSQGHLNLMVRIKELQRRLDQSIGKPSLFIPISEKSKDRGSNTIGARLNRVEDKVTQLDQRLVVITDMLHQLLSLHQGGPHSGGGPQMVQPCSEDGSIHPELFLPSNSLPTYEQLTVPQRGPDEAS
Settings: Balser et al, 1991

With `C=C[C@H]1C[N@@]2CC[C@H]1C[C@@H]2[C@@H](O)c1ccnc2ccc(OC)cc12` [Quinidine] as the compound, how does the “block of IKs” value read?
Its value is 40-50%.
